Measurements reported in patent US20240279221A1, “HETEROCYCLIC COMPOUNDS AND METHODS OF USE” (Schrödinger, Inc., priority 2021, published 2024).

Columns and labels:
human SOS1 = human SOS1 (Homo sapiens (Human), UniProt Q07889); assay: Surface Plasmon Resonance (SPR) SOS1 Binding Assay; conditions: biotinylated SOS1 (res. 564-1049), 25° C., kinetic or steady state fit, read-out: KD for hSOS1
Description: Binding to SOS1 was measured using a SPR assay with purified recombinant human SOS1 substrate (res. 564-1049 with N-terminal Avi tag; purified and biotinylated based on Hillig, et al., Proc Natl Acad Sci USA (2019); 116(7):2551-2560). SPR measurements were performed on a Biacore 8K SPR instrument (GE Healthcare, Sweden). Assays were performed at 25° C. using Series S SA sensor chips pre-coated with streptavidin (GE Healthcare, Cat. BR100531). Biotinylated SOS1 diluted in sample buffer (20 mM Tris HCl, 150 mM NaCl, 1 mM DTT, 0.05% TWEEN 20, 1 mM MgCl2, pH 8.0) was captured to one flow cell of the chip to about 3,000 resonance units (RU) using sample buffer supplemented with 5% DMSO as a running buffer. Serial dilutions of the assayed compounds in the running buffer at 100, 50 or 0.5 μM were injected for 60 s at a flow rate of 30 μL/min and association phases were recorded. Dissociation of the samples was monitored for 600 s. Data processing was performed using Biacore Insight Software (Biacore, GE Healthcare). Sensorgrams recorded on a SA flow cell without captured protein were subtracted from sensorgrams recorded on the SOS1 surface. Blank injections of running buffer were used for double referencing and solvent correction was applied to all sample sensorgrams to correct for buffer mismatches. KDs were estimated using a kinetic or steady state, where applicable, fitting model describing a reversible equilibrium with 1:1 binding between SOS1 and the compound.

[1] = target: SOS1:KRAS (G12C) interaction (Homo sapiens (Human), UniProt Q07889); assay: SOS1-KRas(G12C) FRET Assay; assay type: binding; conditions: 0.5 nM His10-SOS1 (res. 564-1049), 2.5 nM GST-KRAS (res. 1-169, G12C); read-out: SOS-KRas(G12C) FRET IC50
SOS1:KRAS (G12C) interaction, sequence (Q07889 564-1049, stated change not applied): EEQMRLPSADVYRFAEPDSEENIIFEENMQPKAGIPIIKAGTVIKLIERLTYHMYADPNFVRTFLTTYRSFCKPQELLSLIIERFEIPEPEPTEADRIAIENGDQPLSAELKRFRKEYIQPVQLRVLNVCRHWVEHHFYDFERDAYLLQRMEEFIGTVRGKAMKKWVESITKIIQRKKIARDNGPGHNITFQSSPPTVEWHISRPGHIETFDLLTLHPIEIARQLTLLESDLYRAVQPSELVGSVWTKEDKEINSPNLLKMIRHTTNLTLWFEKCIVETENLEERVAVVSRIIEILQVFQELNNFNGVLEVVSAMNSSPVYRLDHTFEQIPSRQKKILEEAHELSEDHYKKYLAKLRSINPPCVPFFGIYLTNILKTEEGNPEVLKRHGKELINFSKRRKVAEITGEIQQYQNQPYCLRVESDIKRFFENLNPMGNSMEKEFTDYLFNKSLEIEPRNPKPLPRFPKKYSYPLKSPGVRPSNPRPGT
In short: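 TR-FRET measured binding of His10-SOS1 (res. 564-1049, 0.5 nM) to GST-KRAS G12C (res. 1-169, 2.5 nM), with anti-GST-Eu(K) and anti-6His-XL665 labels, in PBS with BSA, MgCl2, KF and DTT; 0.5% DMSO. Compound and SOS1 were pre-incubated 15 min at 25° C, KRAS was added, and the plate was read at 665/615 nm after 2 h at RT. IC50 and Hill slope came from non-linear regression.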

human SOS1, sequence (Q07889 564-1049): as the sequence (Q07889 564-1049, stated change not applied) above

SMILES	Kd (human SOS1) [nM]	IC50 [1] [nM]
Cc1c([C@@H](C)Nc2nn(C)c(=O)c3cc(=O)n([C@H]4C[C@H](n5ccnc5)C4)cc23)cccc1C(F)(F)F [Example 29, 6-((1r,3R)-3-(1H-imidazol-1-yl)cyclobutyl)-2-methyl-4-(((R)-1-(2-methyl-3-(trifluoromethyl)phenyl)ethyl)amino)-2,6-dihydropyrido[3,4-d]pyridazine-1,7-dione]	42	61.9
Cc1c([C@@H](C)Nc2nn(C)c(=O)c3c(C#N)c(=O)n(C4CC4)cc23)cccc1C(F)(F)F [Example 10, (R)-6-cyclopropyl-2-methyl-4-((1-(2-methyl-3-(trifluoromethyl)phenyl)ethyl)amino)-1,7-dioxo-1,2,6,7-tetrahydropyrido[3,4-d]pyridazine-8-carbonitrile]	136	2250
Cc1c([C@@H](C)Nc2nn(C)c(=O)c3cc(=O)n(C4(C)CC4)cc23)cccc1C(F)(F)F [Example 15, (R)-2-methyl-4-((1-(2-methyl-3-(trifluoromethyl)phenyl)ethyl)amino)-6-(1-methylcyclopropyl)-2,6-dihydropyrido[3,4-d]pyridazine-1,7-dione]	40	198
Cc1c([C@@H](C)Nc2nn(C)c(=O)c3cc(=O)n(C4CCOCC4)cc23)cccc1C(F)(F)F [Example 4, (R)-2-methyl-4-((1-(2-methyl-3-(trifluoromethyl)phenyl)ethyl)amino)-6-(tetrahydro-2H-pyran-4-yl)-2,6-dihydropyrido[3,4-d]pyridazine-1,7-dione]	22	54.6
C[C@@H](Nc1nn(C)c(=O)c2cc(=O)n([C@H]3CCCOC3)cc12)c1cccc(C(F)F)c1F (single isomer, unassigned) [Example 38]	43	211
Cc1c([C@@H](C)Nc2nn(C)c(=O)c3c(Br)c(=O)n(C4CC4)cc23)cccc1C(F)(F)F [Example 3, (R)-8-bromo-6-cyclopropyl-2-methyl-4-((1-(2-methyl-3-(trifluoromethyl)phenyl)ethyl)amino)-2,6-dihydropyrido[3,4-d]pyridazine-1,7-dione]	63	345
Cc1c([C@@H](C)Nc2nn(C)c(=O)c3cc(=O)n([C@H]4C[C@@H](O)C4)cc23)cccc1C(F)(F)F [Example 14, 6-((1s,3s)-3-hydroxycyclobutyl)-2-methyl-4-(((R)-1-(2-methyl-3-(trifluoromethyl)phenyl)ethyl)amino)-2,6-dihydropyrido[3,4-d]pyridazine-1,7-dione]	87	537
C[C@H](Nc1nn(C)c(=O)c2cc(=O)n(C3CCOCC3)cc12)c1cccc2c1CCC2(F)F [Example 68, (S)-4-((1-(1,1-difluoro-2,3-dihydro-1H-inden-4-yl)ethyl)amino)-2-methyl-6-(tetrahydro-2H-pyran-4-yl)pyrido[3,4-d]pyridazine-1,7(2H,6H)-dione]	1490	1710
C[C@@H](Nc1nn(C)c(=O)c2cc(=O)n([C@H]3CCOC[C@H]3F)cc12)c1cccc(C(F)F)c1F (single isomer, unassigned) [Example 33]	8	31.3
C[C@@H](Nc1nn(C)c(=O)c2cc(=O)n(C3CC4(COC4)C3)cc12)c1cccc(C(F)F)c1F [Example 51, (R)-4-((1-(3-(difluoromethyl)-2-fluorophenyl)ethyl)amino)-2-methyl-6-(2-oxaspiro[3.3]heptan-6-yl)pyrido[3,4-d]pyridazine-1,7(2H,6H)-dione]	17	47.3
C[C@@H](Nc1nn(C)c(=O)c2cc(=O)n([C@@H]3CCOC(C)(C)C3)cc12)c1cccc(C(F)F)c1F (single isomer, unassigned) [Example 84]	28	229
C[C@@H](Nc1nn(C)c(=O)c2cc(=O)n([C@H]3CCOC(C)(C)C3)cc12)c1cccc(C(F)F)c1F (single isomer, unassigned) [Example 83]	11	48.7
Cc1cc([C@@H](C)Nc2nn(C)c(=O)c3cc(=O)n(C4CC4)cc23)cc2c1c(C#N)nn2C (single isomer, unassigned) [Example 27]	134	1530
CNCc1ccccc1-c1csc([C@@H](C)Nc2nn(C)c(=O)c3cc(=O)n(C4CC4)cc23)c1 [Example 57, (R)-6-cyclopropyl-2-methyl-4-((1-(4-(2-((methylamino)methyl)phenyl)thiophen-2-yl)ethyl)amino)-2,6-dihydropyrido[3,4-d]pyridazine-1,7-dione]	8	21.9
Cc1c([C@@H](C)Nc2nn(CCO)c(=O)c3cc(=O)n(C4CC4)cc23)cccc1C(F)(F)F [Example 77, (R)-6-cyclopropyl-2-(2-hydroxyethyl)-4-((1-(2-methyl-3-(trifluoromethyl)phenyl)ethyl)amino)-2,6-dihydropyrido[3,4-d]pyridazine-1,7-dione]	61	305
C[C@@H](Nc1nn(C)c(=O)c2cc(=O)n(C3CC3)cc12)c1ccc2c(C#N)nn(C)c2c1 (single isomer, unassigned) [Example 25]	225	3860
C[C@@H](Nc1nn(C)c(=O)c2cc(=O)n(C3CC3)cc12)c1cccc2sccc12 [Example 64, (R)-4-((1-(benzo[b]thiophen-4-yl)ethyl)amino)-6-cyclopropyl-2-methyl-2,6-dihydropyrido[3,4-d]pyridazine-1,7-dione]	31	126
COc1c(=O)n(C2(C(F)F)CC2)cc2c(N[C@H](C)c3cccc(C(F)F)c3F)nn(C)c(=O)c12 [Example 73, (R)-4-((1-(3-(difluoromethyl)-2-fluorophenyl)ethyl)amino)-6-(1-(difluoromethyl)cyclopropyl)-8-methoxy-2-methyl-2,6-dihydropyrido[3,4-d]pyridazine-1,7-dione]	27	60.8
C[C@@H](Nc1nn(C)c(=O)c2cc(=O)n(C3CCOCC3)cc12)c1cccc(C(F)(F)[C@@H]2CCCO2)c1F (single isomer, unassigned) [Example 45]	10	23.4
Cc1c([C@@H](C)Nc2nn(C)c(=O)c3c(OCC4CC4)c(=O)n(C4CC4)cc23)cccc1C(F)(F)F [Example 82, (R)-6-cyclopropyl-8-(cyclopropylmethoxy)-2-methyl-4-((1-(2-methyl-3-(trifluoromethyl)phenyl)ethyl)amino)-2,6-dihydropyrido[3,4-d]pyridazine-1,7-dione]	51	476
Cc1c([C@@H](C)Nc2nn(C)c(=O)c3c(N4CC[C@@H](N)C4)c(=O)n(C4CC4)cc23)cccc1C(F)(F)F [Example 20, 8-((R)-3-aminopyrrolidin-1-yl)-6-cyclopropyl-2-methyl-4-(((R)-1-(2-methyl-3-(trifluoromethyl)phenyl)ethyl)amino)-2,6-dihydropyrido[3,4-d]pyridazine-1,7-dione]	63	284
Cc1c([C@@H](C)Nc2nn(C)c(=O)c3cc(=O)n([C@H]4C[C@H](O)C4)cc23)cccc1C(F)(F)F [Example 13, 6-((1r,3r)-3-hydroxycyclobutyl)-2-methyl-4-(((R)-1-(2-methyl-3-(trifluoromethyl)phenyl)ethyl)amino)-2,6-dihydropyrido[3,4-d]pyridazine-1,7-dione]	25	99.6
C[C@@H](Nc1nn(C)c(=O)c2cc(=O)n([C@]3(C)CCOC3)cc12)c1cccc(C(F)F)c1F (single isomer, unassigned) [Example 53]	7	30.3
C[C@@H](Nc1nn(C)c(=O)c2cc(=O)n(C3CC3)cc12)c1cccc(C(F)(F)C(C)(C)O)c1F [Example 42, (R)-6-cyclopropyl-4-((1-(3-(1,1-difluoro-2-hydroxy-2-methylpropyl)-2-fluorophenyl)ethyl)amino)-2-methyl-2,6-dihydropyrido[3,4-d]pyridazine-1,7-dione]	34	54.9
C[C@@H](Nc1nn(C)c(=O)c2cc(=O)n(C3(C(F)(F)F)CC3)cc12)c1cccc(C(F)F)c1F [Example 71, (R)-4-((1-(3-(difluoromethyl)-2-fluorophenyl)ethyl)amino)-2-methyl-6-(1-(trifluoromethyl)cyclopropyl)-2,6-dihydropyrido[3,4-d]pyridazine-1,7-dione]	31	69.8
